Several values for one entry are separate records, joined by “and”; a condition that tells them apart may be missing. Equal values may be shown once.
System: IDH1(R132H) primary human AML cells
Test: AML clearance in peripheral blood (flow cytometry, % hCD33+hCD45+ of total white cells), human AML PDx models in NSG mice
Format: in vivo
Conditions: QD, PO, each value one animal
Description: Compounds and Formulation. For in vivo studies, each test article is prepared at an appropriate concentration with vehicle. […] Compound A is prepared fresh at the appropriate concentrations with vehicle every 7 days and stored at 4° C. between doses. […] Cytarabine is prepared fresh weekly by dilution with sterile saline from stock solution of Cytarabine (injection 20 mg/mL, (Pfizer injectables')). Azacitidine (Sigma, Lot #MKBR7212) is formulated in sterile water and is prepared fresh daily immediately before dosing. In vivo human AML PDx models. […] Two models are used in the studies: […] As needed, splenocytes from tumor-bearing mice are used to propagate and expand the models, as described. Each test article is prepared as described above at an appropriate concentration with vehicle to give animals the doses tested in this study at a dosing volume of 10 μL/gram body weight. Mice receiving Compound A (PO, QD) are treated at the indicated doses for the duration of the study. The combination agents are dosed as follows: […] Treated mice are assessed in comparison to vehicle treated and naïve (non-tumor bearing) control mice. Body weight is recorded twice per week. […] AML PDx model propagation. […] Spleens are processed and splenocytes isolated as described below. Two hundred μL per subject of the splenocyte prep is injected IV (intravenous, tail vein) into recipient NSG mice. […] Once engraftment is confirmed, the mice are monitored biweekly until ready to be put on study. […] Submandibular blood is collected. Spleen/Splenocyte Processing and Prep. After excision, a spleen is weighed, and […] is placed in a standard sterile 15 mL polypropylene conical tube containing PBS, and placed on ice. […] The spleen is placed in ice cold sterile PBS in a 15 mL collection tube. The spleen is removed from the collection tube and placed in a 100 micron 50 mL conical tube cell strainer (BD Falcon #352360). The spleen is processed by gentle rubbing of the spleen tissue against the surface of the cell strainer with the end of a 5 mL syringe plunger in a circular motion. The surface of the strainer is rinsed with 10 mL room temperature sterile DPBS (HyClone SH30028) 3 times during the process. […] The cell pellet is collected by centrifugation (300×g) and washed three times with 30 mL sterile DPBS. The cells are counted and resuspended in DPBS at the desired implant concentration. Bone Marrow Collection. […] Flow cytometry analysis of human white cells. Submandibular blood samples from in vivo studies are collected. Fluor-conjugated antibody stains are added according to the manufacturer's instructions (anti-human CD33-PE (clone WM53, BD Cat #555450), anti-human CD14-APC (clone MφpP9, BD Cat #340436), anti-human CD15-V450 (clone HI98, BD Cat #561584), anti-human CD117-BV421 (clone YB5.B8, BD Cat #562434), anti-human […]7 (clone ICRF44, BD Cat #557754), anti-human […]7 (clone HI30, BD Cat #557748), and anti-human CD3-FITC (clone SK7, BD Cat #340542)). The samples are incubated for 30 minutes at room temperature, protected from light. After the incubation, 1.5 mL 1×BD Lyse/Fix (37° C., (BD #558049)) is added to each sample and incubated for 12 minutes at room temperature. The tubes are centrifuged at 300×g for 7 minutes. BD Lyse/Fix solution is aspirated and the cell pellet washed with stain/wash buffer 3 times (1 wash step consisted of: pellet resuspended in 3 mL stain/wash buffer, centrifuged at 300×g, aspirated wash). Fixed cells are then resuspended in 300 to 400 μL stain/wash buffer. Samples are analyzed on a Becton Dickinson FACSVerse Flow cytometer (Cat #651155 Serial #Z6511550447) using standard flow cytometry principles and techniques. Samples are analyzed on the same day as they are stained and fixed. Population gating and data analysis of percent population are performed in the FACSuite software on the FACSVerse cytometer. Percent population values from the data analysis are plotted in Graphpad Prism or in JMP13. […]

Compound: C=CC(=O)N1CCN([C@@H](CC2CC2)c2ccc([C@H](C)Nc3ncc4c(n3)N(CC)C(=O)OC4)cc2)CC1 [Compound A, 7-[[(1S)-1-[4-[(1S)-2-cyclopropyl-1-(4-prop-2-enoylpiperazin-1-yl)ethyl]phenyl]ethyl]amino]-1-ethyl-4H-pyrimido[4,5-d][1,3]oxazin-2-one]
- AML clearance (% hCD33 + hCD45+ (of total white cells)) (Treatment day 2, 3.3 mg/kg Compound A, Table 2A, 3.3 mg/kg): 17.05% and 19.48% and 22.89% and 20.16% and 18.6% and 25.83% and 19.49%
- AML clearance (% hCD33 + hCD45+ (of total white cells)) (Treatment day 7, 1 mg/kg Compound A, 1 mg/kg): 12.21% and 7.04% and 6.97% and 8.4% and 10.28%
- AML clearance (% hCD33 + hCD45+ (of total white cells)) (Treatment day 7, 10 mg/kg Compound A, 10 mg/kg): 4.04% and 3.35% and 6.37% and 4.2% and 2.73%
- AML clearance (% hCD33 + hCD45+ (of total white cells)) (Treatment day 15, 3.3 mg/kg Compound A, Table 2A, 3.3 mg/kg): 35.68% and 39.36% and 39.41% and 22.01% and 44.8% and 40.7% and 29.24%
- AML clearance (% hCD33 + hCD45+ (of total white cells)) (Treatment day 18, 3.3 mg/kg Compound A, 3.3 mg/kg): 20.86% and 33.61% and 41.83% and 32.38% and 38.57% and 42.91% and 20.85%
- AML clearance (% hCD33 + hCD45+ (of total white cells)) (Treatment day 23, 1 mg/kg Compound A, 1 mg/kg): 16.54% and 9.05% and 15.88% and 9.45%
- AML clearance (% hCD33 + hCD45+ (of total white cells)) (Treatment day 23, 10 mg/kg Compound A, 10 mg/kg): 4.97% and 1.6% and 8.52% and 2.88% and 2.41%
- AML clearance (% hCD33 + hCD45+ (of total white cells)) (Treatment day 28, 3.3 mg/kg Compound A, Table 2A, 3.3 mg/kg): 32.12% and 43.09% and 32.66% and 35.22% and 35% and 33.35%
- AML clearance (% hCD33 + hCD45+ (of total white cells)) (Treatment day 34, 3.3 mg/kg Compound A, 3.3 mg/kg): 27.18% and 34.09% and 34.27% and 48.87% and 20.33% and 33.11% and 34.28%
- AML clearance (% hCD33 + hCD45+ (of total white cells)) (Treatment day 36, 1 mg/kg Compound A, 1 mg/kg): 16.96% and 20.94% and 15.66% and 13.65%
- AML clearance (% hCD33 + hCD45+ (of total white cells)) (Treatment day 36, 10 mg/kg Compound A, 10 mg/kg): 4.67% and 3.89% and 4.32% and 2.11% and 2.39%
- AML clearance (% hCD33 + hCD45+ (of total white cells)) (Treatment day 43, 3.3 mg/kg Compound A, Table 2A, 3.3 mg/kg): 59.89% and 65.62% and 61.99% and 47.87% and 52.96% and 62.25% and 27.91%
- AML clearance (% hCD33 + hCD45+ (of total white cells)) (Treatment day 47, 3.3 mg/kg Compound A, 3.3 mg/kg): 64.21% and 29.4% and 31.38% and 63.41% and 45.19% and 20.69% and 37.68%
- AML clearance (% hCD33 + hCD45+ (of total white cells)) (Treatment day 50, 1 mg/kg Compound A, 1 mg/kg): 26.13% and 48.71% and 41.07% and 42.54%
- AML clearance (% hCD33 + hCD45+ (of total white cells)) (Treatment day 50, 10 mg/kg Compound A, 10 mg/kg): 2.9% and 3.66% and 5.08% and 2.11% and 1.55%
- AML clearance (% hCD33 + hCD45+ (of total white cells)) (Treatment day 58, 3.3 mg/kg Compound A, Table 2A, 3.3 mg/kg): 67.45% and 59.45% and 67.73% and 53.95% and 44.7% and 48.88% and 71.52%
- AML clearance (% hCD33 + hCD45+ (of total white cells)) (Treatment day 61, 3.3 mg/kg Compound A, 3.3 mg/kg): 68.85% and 72.89% and 47.42% and 56.98% and 82.54% and 38.58% and 74.64%
- AML clearance (% hCD33 + hCD45+ (of total white cells)) (Treatment day 64, 1 mg/kg Compound A, 1 mg/kg): 51.67% and 57.72% and 55.61% and 45.53%
- AML clearance (% hCD33 + hCD45+ (of total white cells)) (Treatment day 64, 10 mg/kg Compound A, 10 mg/kg): 0.94% and 1.66% and 1.11% and 1.55% and 0.62%
- AML clearance (% hCD33 + hCD45+ (of total white cells)) (Treatment day 75, 3.3 mg/kg Compound A, 3.3 mg/kg): 67.91% and 54.26% and 56.55% and 90.69% and 45.05% and 68.73%
- AML clearance (% hCD33 + hCD45+ (of total white cells)) (Treatment day 77, 3.3 mg/kg Compound A, Table 2A, 3.3 mg/kg): 74.81% and 79.27% and 43.75% and 60.02% and 75.38% and 59.74%
- AML clearance (% hCD33 + hCD45+ (of total white cells)) (Treatment day 78, 1 mg/kg Compound A, 1 mg/kg): 65.17% and 75.95% and 68.32% and 56.56%
- AML clearance (% hCD33 + hCD45+ (of total white cells)) (Treatment day 78, 10 mg/kg Compound A, 10 mg/kg): 0.89% and 1.72% and 0.4% and 0.45% and 0.46%
- AML clearance (% hCD33 + hCD45+ (of total white cells)) (Treatment day 84, 1 mg/kg Compound A, 1 mg/kg): 98.27% and 84.52%
- AML clearance (% hCD33 + hCD45+ (of total white cells)) (Treatment day 89, 3.3 mg/kg Compound A, 3.3 mg/kg): 66.75% and 67.29% and 63.26% and 92.41% and 41.16% and 62.6%
- AML clearance (% hCD33 + hCD45+ (of total white cells)) (Treatment day 92, 10 mg/kg Compound A, 10 mg/kg): 0.8% and 2.36% and 0.4% and 0.19% and 0.32%
- AML clearance (% hCD33 + hCD45+ (of total white cells)) (Treatment day 98, 3.3 mg/kg Compound A, Table 2A, 3.3 mg/kg): 55.63% and 73.72% and 73.42% and 85.43% and 64.03%
- AML clearance (% hCD33 + hCD45+ (of total white cells)) (Treatment day −3, 3.3 mg/kg Compound A, 3.3 mg/kg): 17.5% and 23.88% and 24.18% and 19.46% and 14.94% and 20.14%
- AML clearance (% hCD33 + hCD45+ (of total white cells)) (Treatment day −8, 1 mg/kg Compound A, 1 mg/kg): 6.97% and 3.7% and 3.2% and 7.02% and 11.07%

Source: patent US12440493B2, “Combination therapy for treating cancer comprising substituted piperazines” (Eli Lilly and Company, priority 2020, dated 2025)
